Tests used:
Format in all cases: in vivo
[1] = tested on: Echinochloa oryzacola Vasing.; assay: Test Example 2: herbicidal activity, application during weed generation in submerged conditions; conditions: Eighteenth Table; application herbicide amount 320 g/ha
Outline: (§1)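 Paddy-type pot test: flooded soil, 4 cm depth, greenhouse 25–30 °C. Emulsion formulation diluted in water, applied to water surface at 1–2 leaf stage; rate expressed as g/ha. Read-out at 3 wk, 0–5 score.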

[2] = tested on: Monochoria vaginalis; assay: as above; conditions: Eighteenth Table; application herbicide amount 320 g/ha
Outline: as §1

[3] = tested on: Scirpus juncoides; assay: as above; conditions: Eighteenth Table; application herbicide amount 320 g/ha
Outline: as §1

[4] = tested on: Beta vulgaris ssp. vulgaris; assay: Test Example 4: effect on crop by application to foliage (diluvial soil, plastic box); conditions: application to foliage, 320 g/ha
Outline: (§2)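 Read-out is a 0–5 visual grade of herbicidal ratio (5: ≥90%, almost withered; 0: ≤5%) taken three weeks after treatment. Compound was applied as a diluted emulsion to stem and leaf parts of 14-day greenhouse-grown plants (25° C. to 30° C.) at rates expressed as g/ha.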

[5] = tested on: Brassica campestris L.; assay: as above; conditions: application to foliage, 320 g/ha
Outline: as §2

[6] = tested on: Glycine max; assay: as above; conditions: application to foliage, 320 g/ha
Outline: as §2

[7] = tested on: Triticum aestivum; assay: as above; conditions: application to foliage, 320 g/ha
Outline: as §2

[8] = tested on: Zea mays; assay: as above; conditions: application to foliage, 320 g/ha
Outline: as §2

[9] = tested on: directly sowed Oryza sativa; assay: as above; conditions: application to foliage, 320 g/ha
Outline: as §2

Structure (SMILES)	A (Echinochloa oryzicola Vasing.) herbicidal ratio grade [1]	C (Monochoria vaginalis) herbicidal ratio grade [2]	B (Scirpus juncoides) herbicidal ratio grade [3]	effect on crop, f (Beta vulgaris ssp. vulgaris) [4]	effect on crop, g (Brassica campestris L.) [5]	effect on crop, c (Glycine max) [6]	effect on crop, e (Triticum aestivum) [7]	effect on crop, b (Zea mays) [8]	effect on crop, d (directly sowed Oryza sativa) [9]
CSCCNc1nnc2c(C(=O)Nc3nnnn3C)ccc(C(F)(F)F)n12 [2-080]	2 (Herbicidal ratio of 20% or more and less than 40%)	0 (Herbicidal ratio of 5% or less (almost no effect))	1 (Herbicidal ratio of 5% or more and less than 20%)	5 (Herbicidal ratio of 90% or more (almost completely withered))	5 (Herbicidal ratio of 90% or more (almost completely withered))	0 (Herbicidal ratio of 5% or less (almost no effect))	0 (Herbicidal ratio of 5% or less (almost no effect))	3 (Herbicidal ratio of 40% or more and less than 70%)	4 (Herbicidal ratio of 70% or more and less than 90%)
CCCn1nnnc1NC(=O)c1ccc(C(F)(F)F)n2c(C(C)C)nnc12 [2-090]	5 (Herbicidal ratio of 90% or more (almost completely withered))	4 (Herbicidal ratio of 70% or more and less than 90%)	5 (Herbicidal ratio of 90% or more (almost completely withered))	5 (Herbicidal ratio of 90% or more (almost completely withered))	4 (Herbicidal ratio of 70% or more and less than 90%)	1 (Herbicidal ratio of 5% or more and less than 20%)	3 (Herbicidal ratio of 40% or more and less than 70%)	3 (Herbicidal ratio of 40% or more and less than 70%)	3 (Herbicidal ratio of 40% or more and less than 70%)
C=CCn1nnnc1NC(=O)c1ccc(C(F)(F)F)n2c(C(C)C)nnc12 [2-091]	4 (Herbicidal ratio of 70% or more and less than 90%)	4 (Herbicidal ratio of 70% or more and less than 90%)	5 (Herbicidal ratio of 90% or more (almost completely withered))	5 (Herbicidal ratio of 90% or more (almost completely withered))	5 (Herbicidal ratio of 90% or more (almost completely withered))	0 (Herbicidal ratio of 5% or less (almost no effect))	3 (Herbicidal ratio of 40% or more and less than 70%)	2 (Herbicidal ratio of 20% or more and less than 40%)	3 (Herbicidal ratio of 40% or more and less than 70%)
CC(C)c1nnc2c(C(=O)Nc3nnnn3Cc3ccc(Cl)cc3)ccc(C(F)(F)F)n12 [2-093]	2 (Herbicidal ratio of 20% or more and less than 40%)	3 (Herbicidal ratio of 40% or more and less than 70%)	4 (Herbicidal ratio of 70% or more and less than 90%)	2 (Herbicidal ratio of 20% or more and less than 40%)	1 (Herbicidal ratio of 5% or more and less than 20%)	0 (Herbicidal ratio of 5% or less (almost no effect))	1 (Herbicidal ratio of 5% or more and less than 20%)	0 (Herbicidal ratio of 5% or less (almost no effect))	3 (Herbicidal ratio of 40% or more and less than 70%)
C#CCN(C)c1nnc2c(C(=O)Nc3nnnn3C)ccc(C(F)(F)F)n12 [2-094]	5 (Herbicidal ratio of 90% or more (almost completely withered))	4 (Herbicidal ratio of 70% or more and less than 90%)	5 (Herbicidal ratio of 90% or more (almost completely withered))	5 (Herbicidal ratio of 90% or more (almost completely withered))	4 (Herbicidal ratio of 70% or more and less than 90%)	1 (Herbicidal ratio of 5% or more and less than 20%)	1 (Herbicidal ratio of 5% or more and less than 20%)	3 (Herbicidal ratio of 40% or more and less than 70%)	4 (Herbicidal ratio of 70% or more and less than 90%)
CN(CCC#N)c1nnc2c(C(=O)Nc3nnnn3C)ccc(C(F)(F)F)n12 [2-095]	4 (Herbicidal ratio of 70% or more and less than 90%)	5 (Herbicidal ratio of 90% or more (almost completely withered))	5 (Herbicidal ratio of 90% or more (almost completely withered))	5 (Herbicidal ratio of 90% or more (almost completely withered))	5 (Herbicidal ratio of 90% or more (almost completely withered))	1 (Herbicidal ratio of 5% or more and less than 20%)	3 (Herbicidal ratio of 40% or more and less than 70%)	5 (Herbicidal ratio of 90% or more (almost completely withered))	5 (Herbicidal ratio of 90% or more (almost completely withered))
COc1ccc(N(C)c2nnc3c(C(=O)Nc4nnnn4C)ccc(C(F)(F)F)n23)cc1 [2-099]	5 (Herbicidal ratio of 90% or more (almost completely withered))	4 (Herbicidal ratio of 70% or more and less than 90%)	5 (Herbicidal ratio of 90% or more (almost completely withered))	5 (Herbicidal ratio of 90% or more (almost completely withered))	4 (Herbicidal ratio of 70% or more and less than 90%)	0 (Herbicidal ratio of 5% or less (almost no effect))	0 (Herbicidal ratio of 5% or less (almost no effect))	3 (Herbicidal ratio of 40% or more and less than 70%)	4 (Herbicidal ratio of 70% or more and less than 90%)
C=CCN(C)c1nnc2c(C(=O)Nc3nnnn3C)ccc(C(F)(F)F)n12 [2-100]	4 (Herbicidal ratio of 70% or more and less than 90%)	4 (Herbicidal ratio of 70% or more and less than 90%)	3 (Herbicidal ratio of 40% or more and less than 70%)	5 (Herbicidal ratio of 90% or more (almost completely withered))	5 (Herbicidal ratio of 90% or more (almost completely withered))	0 (Herbicidal ratio of 5% or less (almost no effect))	0 (Herbicidal ratio of 5% or less (almost no effect))	5 (Herbicidal ratio of 90% or more (almost completely withered))	4 (Herbicidal ratio of 70% or more and less than 90%)
COCCSc1nnc2c(C(=O)Nc3nnnn3C)ccc(C(F)(F)F)n12 [2-101]	4 (Herbicidal ratio of 70% or more and less than 90%)	5 (Herbicidal ratio of 90% or more (almost completely withered))	4 (Herbicidal ratio of 70% or more and less than 90%)	5 (Herbicidal ratio of 90% or more (almost completely withered))	5 (Herbicidal ratio of 90% or more (almost completely withered))	2 (Herbicidal ratio of 20% or more and less than 40%)	3 (Herbicidal ratio of 40% or more and less than 70%)	4 (Herbicidal ratio of 70% or more and less than 90%)	5 (Herbicidal ratio of 90% or more (almost completely withered))
C=CCSc1nnc2c(C(=O)Nc3nnnn3C)ccc(C(F)(F)F)n12 [2-102]	4 (Herbicidal ratio of 70% or more and less than 90%)	4 (Herbicidal ratio of 70% or more and less than 90%)	4 (Herbicidal ratio of 70% or more and less than 90%)	5 (Herbicidal ratio of 90% or more (almost completely withered))	3 (Herbicidal ratio of 40% or more and less than 70%)	0 (Herbicidal ratio of 5% or less (almost no effect))	1 (Herbicidal ratio of 5% or more and less than 20%)	1 (Herbicidal ratio of 5% or more and less than 20%)	4 (Herbicidal ratio of 70% or more and less than 90%)

— US9708314B2, “Heterocyclic amide compound” (NISSAN CHEMICAL INDUSTRIES, LTD., priority 2013, dated 2017)
